Laboratory results from patent US20240085403A1, “METHOD FOR INHIBITING ADVENTITIOUS VIRAL INFECTION” (Allogene Therapeutics, Inc., priority 2022, published 2024).
pEC50: −log10 of the molar value.

Tests used:
[1] = test system: HHV-6; conditions: in vitro anti-HHV-6 activity, literature; read-out: EC50 (Reyman 1995); cited from earlier work
[2] = test system: HHV-6; experiment: HHV-6 U65 gene copies by qPCR in iciHHV6 PBMCs treated with antiviral agents; format: cell-based, Human herpesvirus 6; conditions: 15 days culture, concentrations of Table 2
Source text: (§1) We next examined the effects of other known antiviral agents on controlling HHV-6 reactivation using PBMCs with integrate HHV-6 genomes (iciHHV6) to mimic continuous low levels of HHV-6 infection. Ganciclovir, cidofovir and foscarnet are all small molecule inhibitors of HHV viral DNA polymerase. Artesunate is a small molecule antiviral agent targeting HHV immediate early genes. […] See e.g., hhv-6foundation.org/research/hhv-6-antiviral-drug-resistance; Reyman et al., 1995, Antiviral Res. 28:343-57; and Vittayawacharin et al., 2023, Transplant Cell Ther. 29:397. The cells were cultured in X-vivo supplemented media for three days before being split into 4 subcultures. Afterwards, cells were cultured for 15 additional days, with media exchange twice a week, each time containing a fresh dose of the same antiviral agent at the same initial concentration. Cell sampling was taken on different days after the antiviral agent was first added. The effect of the antiviral agent on the viability of cells were analyzed by using a cellular apoptosis screening kit (Thermo Cat #V13242),.
Next, HHV-6 replication was analyzed by detecting copies of HHV-6 gene U65 by qPCR.
(§2) Genomic DNA was extracted from cells and DNA levels of HHV-6 were determined by quantitative PCR (qPCR). The experiment was carried out using the ThermoFisher Scientific, TaqMan™ Fast Virus 1-Step Master Mix, (Catalog number: 4444434).

[3] = test system: PBMCs with integrate HHV-6 genomes (iciHHV6); format: cell-based, human
Source text: as §1

[4] = test system: CAR T cells
[5] = test system: HHV-6 viral antigen p41; experiment: Small-scale CAR T process with HHV-6B infection, p41 viral antigen by flow cytometry; format: cell-based, human herpesvirus 6B (strain Z-29); conditions: IFNα 0.1 ng/mL, D18, both donors
Source text: (§3) HHV-6 reactivation from PBMC is an extremely rare event in CAR T manufacturing based on existing data. To investigate the feasibility of using IFNα in controlling HHV-6 infectivity, we designed experiments to test the effects of IFNα in the manufacturing process by deliberately introducing active HHV-6 infection. In brief, the PBMCs from two different donors were thawed from frozen storage and cultured in complete media (5% HS+X-vivo+Supplements) for activation and LVV transduction. After electroporation of cells with TALEN mRNA, the T cells were infected with HHV-6B (strain Z-29) at MOI=0.4 for 3 hrs, then transferred to the G-Rex bioreactor for expansion for 10 days (Day 8 to Day 18). IFNα was added into the complete media at different concentrations (100 ng/mL, 10 ng/mL, 1 ng/mL and 0.1 ng/mL) on D8 after the 3 hrs of HHV-6 infection and kept in culture until the end of the expansion period. Cell samples were collected on D11, D13, D15 and D18, i.e., three, five, seven, and ten days post infection, to determine the HHV-6 virus infectivity by RT-qPCR assay (FIG. 4B), flow cytometry detection (FIG. 4C), and qPCR assay (FIG. 4D). […]
HHV6 infectivity was determined by intracellular staining using antibody against HHV-6 p41 protein at 1 μg/mL and FACS analysis was performed to determine the percent of cells expressing the viral protein.

[6] = test system: HHV-6 p41; experiment: Immunofluorescence of HHV-6 p41 protein in CAR T drug product culture; format: cell-based, Human herpesvirus 6
Experimental: To test whether HHV-6 protein expression is affected by IFNα treatment, we performed immunofluorescence using an antibody specific for HHV-6 p41, an HHV-6 early gene product, on cells collected from D4 of the Batch 1 (“HHV-6 high”) DP culture.
The cells were fixed with 4% paraformaldehyde and permeabilized using 0.5% saponin before incubating with HHV6 p41 antibody conjugated with Alexa-488 at 0.2 μg/mL. Cells were stained with DAPI prior to imaging at 20× magnification.

[7] = test system: HHV-6; experiment: Timing of IFNα addition before HHV-6 infection, U100 and U79 transcripts by RT-qPCR; format: cell-based, Human herpesvirus 6
Experimental: To mimic the rare reactivation event, PBMC-derived CAR T cells were infected with exogenous HHV-6 at an MOI of 0.4 on Day 8 of the small scale manufacturing process. Cells were treated with IFNα at a concentration of 1 ng/μL or 10 ng/μL on Day 0 (preactivation), Day 1 (activation), Day 4, or Day 6, or untreated throughout the process. All cultures were infected with HHV-6 on Day 8, regardless whether the cells were pre-treated with IFNα or left untreated.
The effects of IFNα on HHV-6 infection were analyzed in cells from two different donors. The transcripts of viral genes U100 (FIGS. 6A and 7A) and U79 (FIGS. 6B and 7B) were analyzed by RT-qPCR at the time points of three, seven and ten days post infection (i.e., on Day 11, Day 15 and Day 18 of the small scale manufacturing process). The y-axis reprepresents relative-fold change for each value compared to the endogenous GAPDH as well as untreated donor RNA (Day 0 before IFNα treatment).

[8] = test system: CAR T cells; experiment: CAR T cell expansion, % CAR+ and phenotype under IFNα in the HHV-6 infection model; conditions: IFNα 0.1 ng/mL to 10 ng/mL, added Day 8 to Day 18
[9] = test system: HHV-6B in CEM-HHV6 cells; experiment: CEM-HHV6 latency/reactivation model, HHV-6 qPCR after sodium butyrate and PMA reactivation; format: cell-based, human herpesvirus 6B (strain Z-29)
Experimental: We next tested whether viral reactivation can be induced in the latency cell culture model. CEM-HHV6 cells (1×10^7) were reactivated using 100 ng/mL of PMA (phorbol-12-myristate-13-acetate, Cat #500582 Millipore-Sigma) and 1 mM NaButyrate (Cat #19-137, Millipore-Sigma) final concentration for 2 days at 37° C. On day 2 cells were washed and resuspended in RPMI+5% FBS and cultured for 18 days. Media was replenished as needed. CEM-HHV6 cells were collected on days 5, 8, 12, 14, 16, and 19 post-reactivation. HHV-6B viral reactivation was assessed by qPCR analysis of the vgDNA of HHV-6B targeting the U31 and U65-66 genes. Untreated CEM-HHV6 cells were used as a negative control.
The CEM-HHV6 reactivation model described in FIGS. 2A-F was utilized for testing the effects of IFNα in the cell culture model, similar to the testing carried out in DP (FIG. 1A). CEM-HHV6 cells were initially cultured in bulk before the start of the experiment. One day before the start of the experiment (D-1), an aliquot of the CEM-HHV6 cells was taken out and split before treatment with one of three IFNα concentrations (100 ng/mL, 1 ng/mL and 0.01 ng/mL), which constituted the “pre-treatment” of IFNα. Cells were collected from the beginning of the experiment (D0) and continuing every few days throughout. […]

[10] = test system: HHV-6B (strain Z-29); experiment: Small-scale CAR T process with HHV-6B infection, U31 DNA by qPCR; format: cell-based, human herpesvirus 6B (strain Z-29); conditions: IFNα 0.1 ng/mL, process D18
Source text: as §3, with “4D). Description of RT-qPCR assay, flow cytometry, and genomic DNA qPCR assay are shown in Materials & Methods.” for “4D).”
Genomic DNA was extracted from cells and DNA levels of HHV-6 were determined by quantitative PCR (qPCR). […]

[11] = test system: HHV-6; experiment: HHV-6 U31 viral DNA by qPCR in thawed CAR T drug product cultured with IFNα; format: cell-based, Human herpesvirus 6; conditions: both lots of DP (Batch 1 HHV-6 high, Batch 2 low); IFNα 0.01, 1, 100 ng/mL; D1-D7
Source text: Drug product (DP) for experiment was selected based on the results of screening for HHV-6, among other adventitous agents, at the end of cell engineering process. Batch #1 was one of a few rare occurrences of DP with “positive” levels of HHV-6 and was chosen for the following studies (designated as the “HHV-6 high” group), while Batch #2 was chosen as the “low”-level counterpart. DP vials were retrieved from LN2, thawed and each split into 4 day 0 (D0) flasks. We first tested the effects of a type I IFN, such as IFNα, on the replication and infectivity of HHV-6. Flasks received either complete media (X-vivo +5% human serum (HS)+supplements) or complete media with added IFNα (human IFN-α2a at 100 ng/mL, 1 ng/mL and 0.01 ng/mL, Miltenyi). Cells were cultured for 7 additional days (D1-D7), with daily collections of cells from all conditions for freezing. Media was replaced every three days, with or without added IFNα for corresponding flasks.
Post-cell culture, DNA was extracted from the collected samples, and analyzed by qPCR for HHV-6 marker U31 as described in Material & Methods.
as §2

[12] = test system: HHV-6; experiment: Timing of IFNα addition before HHV-6 infection, viral DNA by qPCR; format: cell-based, Human herpesvirus 6; conditions: data not shown
[13] = test system: HHV-6B (strain Z-29); experiment: Small-scale CAR T process with HHV-6B infection, viral RNA (U79, U90, U100) by RT-qPCR; format: cell-based, human herpesvirus 6B (strain Z-29)
Source text: as §3
Total RNA was extracted from cells and analyzed using reverse transcription qPCR (RT-qPCR) assay for U79, U90, U100 and GAPDH genes to determine HHV-6 infectivity.

C[C@H]1[C@H](OC(=O)CCC(=O)O)O[C@@H]2O[C@@]3(C)CC[C@H]4[C@H](C)CC[C@@H]1[C@@]24OO3 [Artesunate]
pEC50 [1]: 5.42
HHV-6 levels (U65 gene copies by qPCR) [2]: increased HHV-6 levels over the culture period
cell health / apoptosis [3]: induced higher level of apoptosis

Nc1ccn(C[C@@H](CO)OCP(=O)(O)O)c(=O)n1 [Cidofovir, cidofovir]
pEC50 [1]: 4.82 to 4.92
HHV-6 levels (U65 gene copies by qPCR) [2]: increased HHV-6 levels over the culture period
cell health / apoptosis [3]: induced higher level of apoptosis

O=C(O)P(=O)(O)O [Foscarnet, foscarnet]
pEC50 [1]: 5.08
HHV-6 levels (U65 gene copies by qPCR) [2]: maintain the HHV-6 levels at around their starting level
cell health / apoptosis [3]: did not negatively affect cell health

Nc1nc2c(ncn2COC(CO)CO)c(=O)[nH]1 [Ganciclovir, ganciclovir]
pEC50 [1]: < 4.60
HHV-6 levels (U65 gene copies by qPCR) [2]: decreased viral load initially followed by an increase at later time points
cell health / apoptosis [3]: did not negatively affect cell health

IFNα: human IFN-α2a (Miltenyi), a type I IFN; exemplary sequence SEQ ID NO: 19/20
proliferation of CAR-T cells [4]: could suppress the proliferation
HHV-6 viral antigen p41 expression [5]: effectively reduced
cells positive for HHV-6 p41 (immunofluorescence) ([6]; Batch 1 (HHV-6 high) DP culture, D4, increasing concentration of IFNα): fewer cells positive for HHV-6 p41
cells positive for HHV-6 p41 (immunofluorescence) ([6]; batch 2 (HHV-6 low) culture, D4, regardless of concentration used, data not shown): no detectable HHV-6 p41 positive cells
U79 transcript ([7]; IFNα added on Day 4 or Day 6 (samples C5-C8)): decreased transcript
U100 transcript level ([7]; IFNα added on Day 6 (conditions C7, C8; 10 and 1 ng/μL), infection Day 8, compared to C9): greatest reduction of U100 transcript level
fold of CAR T cell expansion [8]: did not significantly affect
viral DNA, reactivated (RA) versus non-reactivated (NRA) samples ([9]; IFNα 100 ng/mL): virtually no distinction between the NRA and the RA samples
level of viral growth (HHV-6 DNA qPCR) ([9]; as the IFNα dosage increased (0.01, 1, 100 ng/mL), pre- or post-treatment): the level of viral growth was reduced
decrease of HHV-6 DNA levels (U31) [10]: 16 to 38 fold
HHV-6 viral DNA (U31) fold-change relative to D0 [11]: reduction in the viral load compared to the control
viral load as determined by qPCR ([12]; IFNα added on Day 6 (C7, C8)): lowest level of viral load
suppression of HHV-6 infection (U31 DNA qPCR) ([12]; doses of IFNα added closer to infection): strongest suppression effect
HHV-6 viral RNA ([13]; IFNα 10 ng/mL, D18): below detectable levels
HHV-6 RNA levels (U79, U90, U100) ([13]; donor #1, lowest concentration of IFNα, D11 to D18): decreased from D11 to D18
